Values of other authors in patent publication US20070105912A1, “Pharmaceutical compositions comprising lercanidipine” (priority 2003, published 2007).
“And” between values parts separate entries of the source, which are not always exact repeats. Equal entries are not always repeated.

What was measured:
[1] = system: plasma proteins

Bound to plasma proteins [1]: more than 98%
Terminal elimination t1/2 (in vivo): 2 to 5 h
Time of peak plasma levels following dosing (oral administration): 1.5 to 3 h
Fraction of the oral dose excreted in urine (oral dose): about 50%
Increase of amount absorbed with simultaneous intake of food (oral, with food vs without food): 3 to 4 times and 3-4 times
SMILES: COC(=O)C1=C(C)NC(C)=C(C(=O)OC(C)(C)CN(C)CCC(c2ccccc2)c2ccccc2)C1c1cccc([N+](=O)[O-])c1 (centres unmarked) [Lercanidipine, methyl 1,1-N-trimethyl-N-(3,3-diphenylpropyl)aminoethyl 1,4dihydro 6-dimethyl (3-nitrophenyl)pyridine-3,5-dicarboxylate]
